Test results from US9676829B2, “Antibacterial polypeptides and use thereof” (Oslo Universitetssykehus HF, priority 2009, dated 2017).

Columns and labels:
Assay type in all cases: cell-based, Escherichia coli
wild type E. coli = assay: IPTG sensitivity spot assay, DinQ ORFs over-expressed from pET28b(+)
Method: A. IPTG sensitivity in strains plated on IPTG. An aliquot or serially diluted (10-1-10-5 cells ml-1) log-phase cultures of wild type E. coli with empty expression vector pET28b(+) or vector constructs with alternative DinQ ORFs were spotted onto LB plates containing no IPTG (left panel) or 0.6 mM IPTG (right panel). The […] indicates a toxic effect with DinQ ORF 2-5 when the translation is forced by IPTG induction.
Expression plasmids pET28b-ORF1, pET28b-ORF2, pET28b-ORF3, pET28b-ORF4 and pET28b-ORF5 contains the DinQ ORF1, ORF2, ORF3, ORF4 and ORFS open reading frames inserted in the NcoI-BamHI restriction sites of the pET28b(+) vector (Novagen).
The mechanism underlying the UV sensitive phenotype of DinQ in a multicopy situation or under upregulation in an agrB mutant is unknown. The dinQ gene contain two putative open reading frames in which one of the reading frames encode three putative start codons (ii-iv, see FIG. 1C). […] To examine if any of the open reading frames mediate the UV sensitivity each reading frame were cloned into the expression vector pET28b(+) and expressed under control of IPTG (FIG. 4A). […] Next, DinQ ORF […] expression was titrated with increasing concentrations of IPTG (FIG. 4C) showing that ORF IV is highly toxic to the cells at very low doses of IPTG induction. […]

E. coli cells = assay: Membrane depolarization, DiBAC4(3) uptake by flow cytometry after IPTG induction; details: 5 and 20 minutes after 1 mM IPTG
Method: Cells were grown to OD600≅0.4 in LB and then induced with IPTG to a final concentration of 1 mM. At 0, 5 and 20 minutes culture samples were diluted 1:10 in filtered AB minimal medium (Clark and MaalØe, 1967) +10 μg ml-1 DiBAC4(3) (Sigma-Aldrich). After 20 minutes incubation in the dark at room temperature, cells were analysed in a Flowcytometry LSRII (Becton Dickinson) equipped with an argon ion laser and a krypton laser (both Spectra Physics). DiBAC4(3) was detected in channel 580 using 488 nm laser. Parameters were collected as logarithmic signals. The two populations were easily separated in each staining experiment. The data obtained was analyzed by winMDI software.
To examine whether DinQ affects membrane polarization, the inventors tested the ability of E. coli cells with dinQ containing plasmids to take up the dye DiBAC4(3) [bis-(1,3-dibarbituric acid)-trimethine oxanol]. The dye enters cells upon membrane depolarization leading to increased fluorescence. Cells were taken 5 and 20 minutes after induction of DinQ expression with IPTG, incubated with DiBAC4(3) for 20 min and analyzed by flow cytometry (FIG. 9).

agrB mutant BK4043 = assay: Intracellular ATP concentration, luciferase-based assay; details: agrB mutant with up-regulated DinQ peptide vs wild type AB1157
Method: Aliquots of cells were harvested before and 20 minutes after induction with IPTG to a final concentration of 1 mM and washed once in 50 mM Tris-Acetate pH 7.75. ATP was extracted from washed cells by 1% (TCA) trichloraceticacid in 50 mM Tris-Acetate pH 7.75 for 10 minutes. Tris-acetate buffer (1 ml) was added 1:10 to obtain optimal pH of 7.75 before mixing with rL/L reagent (ENLITEN ATP assay, Promega) at room temperature. The amount of ATP extracted (RLU value) was measured with 20/20 Luminometer (Turner Designs) and related to the OD600 for each sample.
The effect of DinQ peptide on the intracellular ATP concentration was measured using a quantitative luciferase-based assay (see materials and methods for details). […] Extracts from uninduced and SOS-induced agrB cells and wild-type cells, AB1157, were analysed 20 minutes after exposure by UV irradiation (sublethal doses).

E. coli [1] = assay: Microscopy of E. coli overexpressing dinQ ORF5 upon IPTG induction; details: 4 h after IPTG 1 mM
Method: E. coli capable of overexpressing dinQ ORF5 were plated (LB agar 2%, kan, tet, amp) and incubated (O/N, 37° C.). A single colony was picked and grown (37° C., 16 h, 200 rpm) in liquid media (LB, kan, tet, amp). The culture was then adjusted to OD600=0.03 in fresh media (LB, kan, tet, amp) and allowed to grow (37° C., 16 h, 200 rpm) back to OD600=0.5 before induction with IPTG (1 mM). After incubation (4 h, 37° C., 200 rpm) an aliquot (200 μl) of the E. coli suspension was removed and fixed in MeOH (1 ml, −20° C.). After centrifugation (2000 rpm, 4° C., 5 min) the cells were aspirated and re-suspend in NaCl (0.9% in H2O). The samples were then spotted onto slides and allowed to dry (42° C.). The slides were then washed 3×H2O and allowed to air dry (RT) before microscopy (see FIG. 20).

E. coli [2] = assay: Small colony variant count after IPTG induction of dinQ ORF5; details: IPTG 1 mM
Method: E. coli capable of overexpressing dinQ ORFS were incubated (O/N, 37° C., 200 rpm) before subculturing to OD600=0.01 (LB, kan, tet, amp). After incubation (37° C., 200 rpm) to OD600=0.5 expression of the toxin was either induced with IPTG (1 mM) or not. At time points after the addition the bacteria were serially diluted (×10) and plated (LB, 2% agar). After incubation (16 h, 37° C.) the plates were counted. Colony size was estimated and those 10× smaller than a typical colony were counted as a small colony variant SCV (see FIG. 21).

E. coli ER2566 = assay: UV radiation survival spot assay of dinQ variants; details: UV irradiation of 24 J/m2, compared with intact dinQ (pBK444)
Text: (§1) The spots in FIG. 22 represent E. coli ER2566 dilutions in the range of 100-10-5 (left to right). UV irradiation of 24 J/m2 was used to induce dinQ toxicity (right picture), and was compared to the unirradiated control assay (left picture). Control cells carry the vector plasmid (pKK232-8), and cells carrying the plasmid encoding intact dinQ (pBK444), were used as reference.
as §1, with “spots” for “spots in”, “23” for “22”, “10^0-10^−5” for “100-10-5”, “reference (see FIG. 23).” for “reference.”

Substance | effect on membrane integrity / depolarization (DiBAC4(3) uptake) (E. coli cells) | toxicity of the dinQ peptide upon UV induction (E. coli ER2566) | other results
MIDKAIIVLGALIALLELIRFLLQLLN (listed as Escherichia coli) [ORF5, DinQ ORF-V peptide with N-terminal Met, form translated from GUG start codon, 27 aa] | rapid and dramatic effects on the membrane integrity |  | toxic/growth inhibitory effect on IPTG plates (wild type E. coli; pET28b(+) constructs, IPTG induction, absence of UV): strong toxicity; effect on membrane integrity / depolarization (DiBAC4(3) uptake) (E. coli cells; listed as DinQ ORF5): most pronounced; effect on intracellular ATP (agrB mutant BK4043): impairs the energy supply in the form of ATP; effect on membrane integrity (ghost cells) by microscopy (E. coli [1]): damages membrane integrity; colony phenotype after induction (E. coli [2]): appearance of small colony variants (SCV)
ORF3: amino acid sequence of the dinQ III polypeptide (ORF-III), 42 aa (MSKRMHSHSIAWRKRVIDKAIIVLGALIALLELIRFLLQLLN; listed as Escherichia coli) | rapid and dramatic effects on the membrane integrity |  | 
MIDKAIVVLGALIALLELIRFLLQLLN (I7V variant of dinQ ORF V peptide) |  | maintain the toxicity | 
MIDKAIIVLGALIALLELIRFLIQLLN (L23I variant of dinQ ORF V peptide) |  | maintain the toxicity | 
MIDKAIIVLKALIALLELIRFLLQLLN (G10K variant of dinQ ORF V peptide) |  | maintain the toxicity | 
DinQ ORF2: amino acid sequence of the dinQ II polypeptide (ORF-II), 49 aa (MRRDRQWMSKRMHSHSIAWRKRVIDKAIIVLGALIALLELIRFLLQLLN; listed as Escherichia coli) | rapid and dramatic effects on the membrane integrity |  | 
MIDKAIIVLGAIVALLELIRFLLQLLN [L12I and I13V] |  | maintain the toxicity | 
ORF4: amino acid sequence of the dinQ IV polypeptide (ORF-IV), 38 aa (MHSHSIAWRKRVIDKAIIVLGALIALLELIRFLLQLLN; listed as Escherichia coli) | rapid and dramatic effects on the membrane integrity |  | toxicity on titration with increasing concentrations of IPTG (wild type E. coli; very low doses of IPTG induction): highly toxic
